Data taken from patent US11666558B2, “Methods of treating intraocular pressure with activators of Tie-2” (EyePoint Pharmaceuticals, Inc., priority 2015, dated 2023).
Where two headings read alike, the source gives them in different places.

Assay: Ocular tissue concentrations (aqueous humor, vitreous humor, iris, retina, choroid, cornea) after topical ocular, subcutaneous and intravitreal administration
Type: in vivo, New Zealand White rabbits
Settings: for concentration at 0.5 h / concentration at 0.5 hr / concentration at 1 h / concentration at 2 h / concentration at 4 h: subcutaneous, 5 mg/kg/dose; for Cornea Conc. (ng/mL) OS: TABLE 16: Cornea homogenate
Experimental: To measure the concentration of Compound 1 in plasma and ocular tissues following topical ocular, subcutaneous, and intravitreal administration, New Zealand White rabbits were administered Compound 1, and plasma and ocular samples were collected at pre-determined time points. Compound 1 formulations were prepared fresh on each day of dosing.
Ocular tissue samples from both eyes of each animal were collected and weights were recorded. Plasma and ocular tissue sample concentrations of Compound 1 were determined by LC-MS/MS.
New Zealand White rabbits weighing 2.5 to 3.5 kg were used on this study. Rabbits were housed one per cage. Animals were not fasted and only healthy animals with no ocular illness were used. Two rabbits per group were sacrificed at each of four ocular tissue sampling time points for a total of eight rabbits per group.
Animals were anesthetized for ocular (topical) and intravitreal dosing following the 12IA7 IACUC protocol. Each rabbit received a bolus dose of test formulation either via topical ocular administration 3 times daily on Days 1 and 2 (at 0, 6, and 12 hours), and once on Day 3 (at 0 hours) into both eyes; via intravitreal administration into both eyes once on Day 1 (at 0 hours); or via subcutaneous administration 2 times daily on Days 1 and 2 (at 0 and 8 hours) and once daily on Day 3 (at 0 hours). Doses were given within an approximately 1 hour window each day where applicable.
On Day 1, for intravitreal administration, or on Day 3, for topical ocular and subcutaneous administration, at the appropriate ocular tissue collection time points, animals were euthanized and both eyes were enucleated immediately. Following enucleation, each eye was rinsed with phosphate-buffered saline. Ocular tissue samples from both eyes of each animal were collected at predetermined time points and weights were recorded. All the samples were frozen immediately on dry ice, and stored at −60° C. to −80° C. pending bioanalysis.
An LC-MS/MS method was developed for the determination of Compound 1 in rabbit aqueous tissues (plasma, aqueous and vitreous humor) and solid ocular tissue samples. A pre-study standard curve was analyzed to determine the specificity, range, and lower limit of quantitation of the method. Plasma and tissue homogenate study samples were extracted and analyzed. All the samples were treated identically to the standards.
One eight-point standard curve was used in each analytical batch. To be accepted, each batch must have had at least five of eight standards with accuracy within ±20% of nominal, except at the lower limit of quantification (LLOQ), where ±25% was acceptable.
Concentration versus time data is plotted in FIGS. 3-16. All data are expressed as ng/g of the free drug. Samples that were below the limit of quantitation (0.2 ng/mL) were not used in the calculation of averages.

concentration at 48 h (New Zealand White, rabbit, retina, other: intravitreal, 2.5 mg/eye, Retina, 48 hr, sodium salt, intravitreal 2.5 mg/eye, Group 4, read-out: Retina Avg.): 72600 ng/g
concentration at 72 h (New Zealand White, rabbit, retina, other: intravitreal, 2.5 mg/eye, Retina, OD, sodium salt, intravitreal 2.5 mg/eye, Group 4, read-out: Retina Conc. (ng/g) OD): 8250 ng/g
concentration at 72 h (New Zealand White, rabbit, retina, other: intravitreal, 2.5 mg/eye, Retina, OS, sodium salt, intravitreal 2.5 mg/eye, Group 4, read-out: Retina Conc. (ng/g) OS): 4070 ng/g
concentration at 72 h (New Zealand White, rabbit, retina, other: intravitreal, 2.5 mg/eye, Retina, average, intravitreal 2.5 mg/eye (group 5), read-out: Avg.): 109000 ng/g
concentration at 72 h (New Zealand White, rabbit, retina, other: intravitreal, 2.5 mg/eye, Retina, left eye, intravitreal 2.5 mg/eye (group 5), individual animals, read-out: Conc. (ng/g) OS): 119000 ng/g
concentration at 72 h (New Zealand White, rabbit, retina, other: intravitreal, 2.5 mg/eye, Retina, right eye, intravitreal 2.5 mg/eye (group 5), individual animals, read-out: Conc. (ng/g) OD): 109000 ng/g
concentration at 72 h (New Zealand White, rabbit, retina, other: intravitreal, 2.5 mg/eye, Retina, sodium salt, intravitreal 2.5 mg/eye, Group 4, read-out: Retina Avg.): 6060 ng/g
concentration at 0.5 h (New Zealand White, rabbit, retina, Retina, OD, sodium salt, subcutaneous 5 mg/kg/dose, Group 2, read-out: Retina Conc. (ng/g) OD): 30.5 ng/g
concentration at 0.5 hr (New Zealand White, rabbit, retina, Retina, OS, sodium salt, subcutaneous 5 mg/kg/dose, Group 2, read-out: Retina Conc. (ng/g) OS): 48 ng/g
concentration at 0.5 h (New Zealand White, rabbit, retina, Retina, free acid, subcutaneous 5 mg/kg/dose, Group 3, read-out: Retina Average): 38.7 ng/g
concentration at 0.5 hr (New Zealand White, rabbit, retina, Retina, sodium salt, subcutaneous 5 mg/kg/dose, Group 2, read-out: Retina Average): 40.5 ng/g
concentration at 1 h (New Zealand White, rabbit, retina, Retina, 1 hr, OD, free acid, subcutaneous 5 mg/kg/dose, Group 3, read-out: Retina Conc. (ng/g) OD): 10.4 ng/g
concentration at 1 h (New Zealand White, rabbit, retina, Retina, 1 hr, OD, sodium salt, subcutaneous 5 mg/kg/dose, Group 2, read-out: Retina Conc. (ng/g) OD): 22.4 ng/g
concentration at 1 h (New Zealand White, rabbit, retina, Retina, 1 hr, OS, free acid, subcutaneous 5 mg/kg/dose, Group 3, read-out: Retina Conc. (ng/g) OS): 6.93 ng/g
concentration at 1 h (New Zealand White, rabbit, retina, Retina, 1 hr, OS, sodium salt, subcutaneous 5 mg/kg/dose, Group 2, read-out: Retina Conc. (ng/g) OS): 43.2 ng/g
concentration at 1 h (New Zealand White, rabbit, retina, Retina, 1 hr, free acid, subcutaneous 5 mg/kg/dose, Group 3, read-out: Retina Average): 10.2 ng/g
concentration at 1 h (New Zealand White, rabbit, retina, Retina, 1 hr, sodium salt, subcutaneous 5 mg/kg/dose, Group 2, read-out: Retina Average): 32.6 ng/g
concentration at 2 h (New Zealand White, rabbit, retina, Retina, 2 hr, OD, free acid, subcutaneous 5 mg/kg/dose, Group 3, read-out: Retina Conc. (ng/g) OD): 6.31 ng/g
concentration at 2 h (New Zealand White, rabbit, retina, Retina, 2 hr, OD, sodium salt, subcutaneous 5 mg/kg/dose, Group 2, read-out: Retina Conc. (ng/g) OD): 15 ng/g
concentration at 2 h (New Zealand White, rabbit, retina, Retina, 2 hr, OS, free acid, subcutaneous 5 mg/kg/dose, Group 3, read-out: Retina Conc. (ng/g) OS): 6.93 ng/g
concentration at 2 h (New Zealand White, rabbit, retina, Retina, 2 hr, OS, sodium salt, subcutaneous 5 mg/kg/dose, Group 2, read-out: Retina Conc. (ng/g) OS): 17.8 ng/g
concentration at 2 h (New Zealand White, rabbit, retina, Retina, 2 hr, free acid, subcutaneous 5 mg/kg/dose, Group 3, read-out: Retina Average): 10.5 ng/g
concentration at 2 h (New Zealand White, rabbit, retina, Retina, 2 hr, sodium salt, subcutaneous 5 mg/kg/dose, Group 2, read-out: Retina Average): 16.4 ng/g
concentration at 4 h (New Zealand White, rabbit, retina, Retina, 4 hr, OD, sodium salt, subcutaneous 5 mg/kg/dose, Group 2, read-out: Retina Conc. (ng/g) OD): 19.7 ng/g
concentration at 4 h (New Zealand White, rabbit, retina, Retina, 4 hr, free acid, subcutaneous 5 mg/kg/dose, Group 3, read-out: Retina Average): 35.3 ng/g
concentration at 4 h (New Zealand White, rabbit, retina, Retina, 4 hr, sodium salt, subcutaneous 5 mg/kg/dose, Group 2, read-out: Retina Average): 19.7 ng/g
concentration at 0.5 h (New Zealand White, rabbit, retina, TABLE 16: Retina, free acid, subcutaneous 5 mg/kg/dose, Group 3, read-out: Retina Average): 38.7 ng/g
concentration at 1 h (New Zealand White, rabbit, retina, TABLE 16: Retina, 1 hr, OD, free acid, subcutaneous 5 mg/kg/dose, Group 3, read-out: Retina Conc. (ng/g) OD): 10.4 ng/g
concentration at 1 h (New Zealand White, rabbit, retina, TABLE 16: Retina, 1 hr, OS, free acid, subcutaneous 5 mg/kg/dose, Group 3, read-out: Retina Conc. (ng/g) OS): 6.93 ng/g
concentration at 1 h (New Zealand White, rabbit, retina, TABLE 16: Retina, 1 hr, free acid, subcutaneous 5 mg/kg/dose, Group 3, read-out: Retina Average): 10.2 ng/g
concentration at 2 h (New Zealand White, rabbit, retina, TABLE 16: Retina, 2 hr, OD, free acid, subcutaneous 5 mg/kg/dose, Group 3, read-out: Retina Conc. (ng/g) OD): 6.31 ng/g
concentration at 2 h (New Zealand White, rabbit, retina, TABLE 16: Retina, 2 hr, OS, free acid, subcutaneous 5 mg/kg/dose, Group 3, read-out: Retina Conc. (ng/g) OS): 6.93 ng/g
concentration at 2 h (New Zealand White, rabbit, retina, TABLE 16: Retina, 2 hr, free acid, subcutaneous 5 mg/kg/dose, Group 3, read-out: Retina Average): 10.5 ng/g
concentration at 4 h (New Zealand White, rabbit, retina, TABLE 16: Retina, 4 hr, free acid, subcutaneous 5 mg/kg/dose, Group 3, read-out: Retina Average): 35.3 ng/g
Structure (SMILES): COC(=O)N[C@@H](Cc1ccccc1)C(=O)N[C@@H](Cc1ccc(NS(=O)(=O)O)cc1)c1csc(-c2cccs2)n1 [Compound 1]
Retina Conc. (ng/mL) OD (Retina homogenate, 4 hr, OD, free acid, subcutaneous 5 mg/kg/dose, Group 3): BLOQ (Below the limit of quantitation (0.5 ng/mL))
Retina Conc. (ng/mL) OS (Retina homogenate, 4 hr, OS, sodium salt, subcutaneous 5 mg/kg/dose, Group 2): BLOQ (Below the limit of quantitation (0.5 ng/mL))
Cornea Conc. (ng/mL) OS (1 hr, OS, free acid, subcutaneous 5 mg/kg/dose, Group 3): BLOQ (Below the limit of quantitation (0.5 ng/mL))
Cornea Conc. (ng/mL) OS (2 hr, OS, free acid, subcutaneous 5 mg/kg/dose, Group 3): BLOQ (Below the limit of quantitation (0.5 ng/mL))
Retina Conc. (ng/mL) OD (TABLE 16: Retina homogenate, 4 hr, OD, free acid, subcutaneous 5 mg/kg/dose, Group 3): BLOQ (Below the limit of quantitation (0.5 ng/mL))
rank order of exposure in aqueous and vitreous humor by route (intravitreal, topical ocular, subcutaneous administration): intravitreal>>topical ocular>subcutaneous administration
